Assay results taken from patent US10239843B2 (CANCER RESEARCH TECHNOLOGY LIMITED, priority 2014, dated 2019).
Like-named read-outs stand apart in the source and are kept apart here.

Tests used:
[1] = biological target: Human High specific Activity PARP1 (Homo sapiens (Human), UniProt P09874); test: PARP1 in vitro selectivity assay (histone PARylation, luminescence); format: biochemical; conditions: read-out: PARP1 Biochem IC50
Procedure: PARP1 In vitro selectivity assays were conducted as a 10 ul reaction volume in a NUNC Maxisorp 384-well assay plate pre-coated in-house with Histones. […] The wells were then washed with PBS/0.1% Triton X100. PARP1 activity was then detected by measuring the extent of PARylation. […] Luminescence signal was then measured immediately.

Human Full Length ARH3 = Human Full Length ARH3 (Homo sapiens (Human), UniProt Q9NX46); test: ARH3 in vitro selectivity assay (TR-FRET); format: biochemical; conditions: read-out: ARH3 Biochem IC50
Human Full Length ARH3, sequence (Q9NX46 whole entry): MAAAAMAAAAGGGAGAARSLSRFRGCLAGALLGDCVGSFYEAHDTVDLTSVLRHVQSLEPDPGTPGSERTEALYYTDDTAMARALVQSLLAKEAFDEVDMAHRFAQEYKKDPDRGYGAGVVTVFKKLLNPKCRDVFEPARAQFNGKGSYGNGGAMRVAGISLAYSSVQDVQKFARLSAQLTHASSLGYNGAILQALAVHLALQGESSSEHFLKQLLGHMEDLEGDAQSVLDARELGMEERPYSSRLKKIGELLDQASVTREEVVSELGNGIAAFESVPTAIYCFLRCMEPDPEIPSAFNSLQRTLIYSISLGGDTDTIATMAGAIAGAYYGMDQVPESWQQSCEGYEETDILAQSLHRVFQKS
Procedure: ARH3 In vitro selectivity assays were conducted in a total volume of 15 ul in a standard 384 well format.

Human Full Length PARG = Human Full Length PARG (Homo sapiens (Human), UniProt Q86W56); test: PARG enzyme assay (TR-FRET); format: biochemical
Human Full Length PARG, sequence (Q86W56 whole entry): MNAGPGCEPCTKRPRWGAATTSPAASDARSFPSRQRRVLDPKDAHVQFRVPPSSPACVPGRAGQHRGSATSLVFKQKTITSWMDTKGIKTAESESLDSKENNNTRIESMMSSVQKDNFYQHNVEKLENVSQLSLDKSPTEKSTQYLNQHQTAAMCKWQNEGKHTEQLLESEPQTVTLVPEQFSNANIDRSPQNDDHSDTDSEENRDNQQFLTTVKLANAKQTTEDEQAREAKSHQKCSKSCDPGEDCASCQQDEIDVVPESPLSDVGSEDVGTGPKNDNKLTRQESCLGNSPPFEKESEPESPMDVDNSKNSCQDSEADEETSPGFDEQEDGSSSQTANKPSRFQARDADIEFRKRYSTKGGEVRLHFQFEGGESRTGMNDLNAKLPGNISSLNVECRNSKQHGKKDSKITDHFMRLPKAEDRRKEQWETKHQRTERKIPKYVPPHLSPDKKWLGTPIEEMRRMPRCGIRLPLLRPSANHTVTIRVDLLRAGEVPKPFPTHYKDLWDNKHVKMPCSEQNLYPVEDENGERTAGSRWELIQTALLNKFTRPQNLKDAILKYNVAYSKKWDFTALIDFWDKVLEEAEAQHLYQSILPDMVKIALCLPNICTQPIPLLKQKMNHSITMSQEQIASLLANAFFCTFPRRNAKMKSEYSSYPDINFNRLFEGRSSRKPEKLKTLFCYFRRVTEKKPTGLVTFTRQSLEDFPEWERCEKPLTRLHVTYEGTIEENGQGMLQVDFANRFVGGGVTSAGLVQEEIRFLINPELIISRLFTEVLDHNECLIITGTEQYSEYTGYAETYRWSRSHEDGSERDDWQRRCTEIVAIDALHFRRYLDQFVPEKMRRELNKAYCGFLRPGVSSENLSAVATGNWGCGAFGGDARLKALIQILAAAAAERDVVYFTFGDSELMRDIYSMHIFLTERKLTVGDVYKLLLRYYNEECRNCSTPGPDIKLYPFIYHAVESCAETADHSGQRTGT

PARG in HeLa cell line = test: PARG cell assay (PAR chain immunofluorescence after MMS); format: cell-based; conditions: HeLa cells
Procedure, shortened: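 HeLa cells were dosed with compound for 1 h, then given MMS at 50 μg/mL final for a further hour. Cells were methanol-fixed, permeabilised and stained overnight at 4° C with anti-PAR monoclonal antibody. Retained nuclear PAR chains, detected by indirect immunofluorescence, indicate PARG inhibition.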

[2] = read-out: PARG Biochem IC50 Geomean
[3] = MMS 50 μg/mL, read-out: PARG Cell IC50 Geomean
[4] = Homo sapiens, MMS 50 μg/mL, read-out: PARG Cell IC50 Geomean
[5] = MMS treatment, read-out: PARG Cell IC50
[6] = Homo sapiens, MMS treatment, read-out: PARG Cell IC50

Human High specific Activity PARP1, sequence (P09874 whole entry): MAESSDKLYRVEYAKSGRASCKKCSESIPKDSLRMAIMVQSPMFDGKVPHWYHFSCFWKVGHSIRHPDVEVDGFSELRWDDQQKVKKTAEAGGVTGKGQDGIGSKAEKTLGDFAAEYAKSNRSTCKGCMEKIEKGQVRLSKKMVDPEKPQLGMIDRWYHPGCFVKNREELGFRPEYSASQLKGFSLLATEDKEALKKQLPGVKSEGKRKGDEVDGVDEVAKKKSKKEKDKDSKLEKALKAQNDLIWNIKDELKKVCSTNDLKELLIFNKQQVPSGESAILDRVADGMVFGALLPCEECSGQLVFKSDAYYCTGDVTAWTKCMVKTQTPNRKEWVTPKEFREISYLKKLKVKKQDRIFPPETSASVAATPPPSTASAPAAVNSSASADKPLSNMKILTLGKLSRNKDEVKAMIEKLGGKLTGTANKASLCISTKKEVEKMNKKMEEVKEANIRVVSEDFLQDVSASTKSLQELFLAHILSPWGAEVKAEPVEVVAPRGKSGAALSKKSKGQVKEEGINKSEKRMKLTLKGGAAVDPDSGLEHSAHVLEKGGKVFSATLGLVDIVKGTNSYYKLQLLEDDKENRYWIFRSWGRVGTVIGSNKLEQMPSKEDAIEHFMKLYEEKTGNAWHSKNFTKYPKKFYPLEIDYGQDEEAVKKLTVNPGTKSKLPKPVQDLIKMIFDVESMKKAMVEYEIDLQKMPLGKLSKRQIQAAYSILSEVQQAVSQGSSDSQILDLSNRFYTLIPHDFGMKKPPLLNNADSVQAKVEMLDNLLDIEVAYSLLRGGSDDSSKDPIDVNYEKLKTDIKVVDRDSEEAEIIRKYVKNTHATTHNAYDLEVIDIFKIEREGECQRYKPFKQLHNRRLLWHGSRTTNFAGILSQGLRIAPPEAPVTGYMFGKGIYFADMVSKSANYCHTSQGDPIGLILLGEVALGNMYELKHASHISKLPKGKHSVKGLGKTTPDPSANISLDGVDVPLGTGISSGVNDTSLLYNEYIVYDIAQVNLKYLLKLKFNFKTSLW

IC50 [1] [µM] | IC50 (Human Full Length ARH3) [µM] | IC50 (Human Full Length PARG; [2]) [nM] | IC50 (PARG in HeLa cell line; [3]) [nM] | IC50 (PARG in HeLa cell line; [4]) [nM] | IC50 (Human Full Length PARG; read-out: PARG Biochem IC50) [nM] | IC50 (PARG in HeLa cell line; [5]) [nM] | IC50 (PARG in HeLa cell line; [6]) [nM] | Compound
> 150 | > 150 | 1020 |  |  |  |  |  | Cn1c(=O)c(=O)n(CC2CC2)c2ccc(S(=O)(=O)NC3(C)CC3)cc21 [Example 22, 1-(Cyclopropylmethyl)-4-methyl-N-(1-methylcyclopropyl)-2,3-dioxo-quinoxaline-6-sulfonamide]
> 150 | > 150 | 5550 |  |  |  |  |  | CNc1nc2ccc(S(=O)(=O)NC3(C)CC3)cc2n(C)c1=O [Example 41, 4-Methyl-2-(methylamino)-N-(1-methylcyclopropyl)-3-oxo-quinoxaline-6-sulfonamide]
> 150 | > 150 | 2180 |  |  |  |  |  | Cn1c(C2CC2)nc2ccc(S(=O)(=O)NC3(C)CC3)cc2c1=O [Example 80]
> 150 | > 150 | 9440 |  |  |  |  |  | CC1(NS(=O)(=O)c2ccc3nc(N4CCCC4)[nH]c(=O)c3c2)CC1 [Example 98]
> 150 | > 100 | 184 | 124 |  |  |  |  | Cc1nc(C)c(Cn2c(=O)n(C)c(=O)c3cc(S(=O)(=O)NC4(C)CC4)ccc32)s1 [Example 133]
> 150 | > 100 | 19 |  | 28 |  |  |  | Cc1ncc(Cn2c(=O)c3cc(S(=O)(=O)NC4(C)CC4)ccc3n(CC3CC3)c2=O)s1 [Example 156]
> 150 | > 100 | 92 | 88 |  |  |  |  | Cc1noc(C)c1Cn1c(=O)c2cc(S(=O)(=O)NC3(C)CC3)ccc2n(CC2CC2)c1=O [Example 158]
> 150 | > 100 | 45 | 82 |  |  |  |  | C#CCn1c(=O)n(Cc2cnc(C)s2)c(=O)c2cc(S(=O)(=O)NC3(C)CC3)ccc21 [Example 161]
> 150 | > 100 | 4 | 9 |  |  |  |  | Cc1ncc(Cn2c(=O)c3cc(S(=O)(=O)NC4(C)CC4)ccc3n(Cc3sc(C)nc3C)c2=O)s1 [Example 162]
> 150 | > 100 | 33 |  | 63 |  |  |  | Cc1nc(C)c(Cn2c(=O)n(Cc3c(C)noc3C)c(=O)c3cc(S(=O)(=O)NC4(C)CC4)ccc32)s1 [Example 165]
> 150 | > 150 | 18 | 88 |  |  |  |  | Cc1cc(Cn2c(=O)n(Cc3cnn(C)c3)c(=O)c3cc(S(=O)(=O)NC4(C)CC4)ccc32)n(C)n1 [Example 173]
> 150 | > 150 | 426 |  | 460 |  |  |  | Cc1cc(Cn2c(=O)c3cc(S(=O)(=O)NC4(C)CC4)ccc3n(C)c2=O)on1 [Example 180]
> 150 | > 150 | 648 |  |  |  |  |  | Cc1cc(Cn2nc(Cc3ccccc3)c3ccc(S(=O)(=O)NC4(C)CC4)cc3c2=O)on1 [Example 298]
> 150 | > 150 | 274 | 201 |  |  |  |  | Cc1cc(Cn2nc(CC3CCOCC3)c3ccc(S(=O)(=O)NC4(C)CC4)cc3c2=O)on1 [Example 308]
> 150 | > 150 | 549 |  |  |  |  |  | Cc1cc(Cn2cc(C(=O)C3CC3)c3ccc(S(=O)(=O)NC4(C)CC4)cc3c2=O)on1 [Example 311, 4-(Cyclopropanecarbonyl)-N-(1-methylcyclopropyl)-2-[(3-methylisoxazol-5-yl)methyl]-1-oxo-isoquinoline-7-sulfonamide]
 | > 150 |  |  |  | 7 |  |  | Cc1ncsc1Cn1c(=O)n(Cc2cnn(C)c2)c(=O)c2cc(S(=O)(=O)NC3(CF)CC3)ccc21 [Example 572, N-[1-(Fluoromethyl)cyclopropyl]-3-[(1-methylpyrazol-4-yl)methyl]-1-[(4-methylthiazol-5-yl)methyl]-2,4-dioxo-quinazoline-6-sulfonamide]

IC50 [1] [µM] | IC50 (Human Full Length ARH3) [µM] | IC50 (Human Full Length PARG; [2]) [nM] | IC50 (PARG in HeLa cell line; [3]) [nM] | IC50 (PARG in HeLa cell line; [4]) [nM] | IC50 (Human Full Length PARG; read-out: PARG Biochem IC50) [nM] | IC50 (PARG in HeLa cell line; [5]) [nM] | IC50 (PARG in HeLa cell line; [6]) [nM] | Compound
 | > 150 |  |  |  | 10 |  |  | Cn1cc(Cn2c(=O)c3cc(S(=O)(=O)NC4(CF)CC4)ccc3n(Cc3ccns3)c2=O)cn1 [Example 578, N-[1-(Fluoromethyl)cyclopropyl]-1-(isothiazol-5-ylmethyl)-3-[(1-methylpyrazol-4-yl)methyl]-2,4-dioxo-quinazoline-6-sulfonamide]
 | > 150 |  |  |  | 9 |  |  | Cc1oncc1Cn1c(=O)n(Cc2cnn(C)c2)c(=O)c2cc(S(=O)(=O)NC3(CF)CC3)ccc21 [Example 579, N-[1-(Fluoromethyl)cyclopropyl]-1-[(5-methylisoxazol-4-yl)methyl]-3-[(1-methylpyrazol-4-yl)methyl]-2,4-dioxo-quinazoline-6-sulfonamide]
 | > 150 |  |  |  | 239 | 122 |  | CCn1c(=O)n(Cc2nnc(C)s2)c(=O)c2cc(S(=O)(=O)NC3(C)CC3)ccc21 [Example 614, 1-Ethyl-N-(1-methylcyclopropyl)-3-[(5-methyl-1,3,4-thiadiazol-2-yl)methyl]-2,4-dioxo-quinazoline-6-sulfonamide]
 | > 150 |  |  |  | 17 |  | 25 | Cc1cc(Cn2c(=O)c3cc(S(=O)(=O)NC4(CF)CC4)ccc3n(Cc3sc(C)nc3C)c2=O)on1 [Example 616, 1-[(2,4-Dimethylthiazol-5-yl)methyl]-N-[1-(fluoromethyl)cyclopropyl]-3-[(3-methylisoxazol-5-yl)methyl]-2,4-dioxo-quinazoline-6-sulfonamide]
 | > 150 |  |  |  | 39 |  | 37 | CCCCn1c(=O)n(Cc2cnn(C)c2)c(=O)c2cc(S(=O)(=O)NC3(CF)CC3)ccc21 [Example 617, 1-Butyl-N-[1-(fluoromethyl)cyclopropyl]-3-[(1-methylpyrazol-4-yl)methyl]-2,4-dioxo-quinazoline-6-sulfonamide]
 |  |  |  |  | 355 |  | 228 | Cc1cc(Cn2c(=O)c3cc(S(=O)(=O)NC4(CF)CC4)ccc3n(CC(F)(F)F)c2=O)on1 [Example 622, N-[1-(Fluoromethyl)cyclopropyl]-3-[(3-methylisoxazol-5-yl)methyl]-2,4-dioxo-1-(2,2,2-trifluoroethyl)quinazoline-6-sulfonamide]
 |  |  |  |  | 2670 |  | 10000 | Cn1cc(Cn2c(=O)c3cc(S(=O)(=O)NC4(CF)CC4)ccc3n(CC(F)(F)F)c2=O)cn1 [Example 623, N-[1-(Fluoromethyl)cyclopropyl]-3-[(1-methylpyrazol-4-yl)methyl]-2,4-dioxo-1-(2,2,2-trifluoroethyl)quinazoline-6-sulfonamide]
 |  |  |  |  | 1040 |  | 4350 | Cn1c(=O)n(Cc2nncs2)c(=O)c2cc(S(=O)(=O)NC3(CF)CC3)ccc21 [Example 624, N-[1-(Fluoromethyl)cyclopropyl]-1-methyl-2,4-dioxo-3-(1,3,4-thiadiazol-2-ylmethyl)quinazoline-6-sulfonamide]
 | > 150 |  |  |  | 597 |  | 730 | Cc1cc(Cn2c(=O)c3cc(S(=O)(=O)NC4(CF)CC4)ccc3n(C)c2=O)sn1 [Example 625, N-[1-(Fluoromethyl)cyclopropyl]-1-methyl-3-[(3-methylisothiazol-5-yl)methyl]-2,4-dioxo-quinazoline-6-sulfonamide]
 |  |  |  |  | 3160 | 1810 |  | Cn1ncc(Cn2c(=O)c3cc(S(=O)(=O)NC4(CF)CC4)ccc3n(C)c2=O)n1 [Example 626, N-[1-(Fluoromethyl)cyclopropyl]-1-methyl-3-[(2-methyltriazol-4-yl)methyl]-2,4-dioxo-quinazoline-6-sulfonamide]
 |  |  |  |  | 159 |  | 351 | Cc1cc(Cn2c(=O)c3cc(S(=O)(=O)NC4(CF)CC4)ccc3n(Cc3nncs3)c2=O)on1 [Example 627, N-[1-(Fluoromethyl)cyclopropyl]-3-[(3-methylisoxazol-5-yl)methyl]-2,4-dioxo-1-(1,3,4-thiadiazol-2-ylmethyl)quinazoline-6-sulfonamide]
 |  |  |  |  | 2690 |  | 736 | CCc1nnc(Cn2c(=O)c3cc(S(=O)(=O)NC4(CF)CC4)ccc3n(C)c2=O)s1 [Example 628, 3-[(5-Ethyl-1,3,4-thiadiazol-2-yl)methyl]-N-[1-(fluoromethyl)cyclopropyl]-1-methyl-2,4-dioxo-quinazoline-6-sulfonamide]
 | > 150 |  |  |  | 82 |  | 226 | Cc1nnc(Cn2c(=O)c3cc(S(=O)(=O)NC4(CF)CC4)ccc3n(CCF)c2=O)s1 [Example 629, 1-(2-Fluoroethyl)-N-[1-(fluoromethyl)cyclopropyl]-3-[(5-methyl-1,3,4-thiadiazol-2-yl)methyl]-2,4-dioxo-quinazoline-6-sulfonamide]
 | > 150 |  |  |  | 16 | 542 |  | Cc1nnc(Cn2c(=O)c3cc(S(=O)(=O)NC4(CF)CC4)ccc3n(Cc3cnn(C)c3)c2=O)s1 [Example 630, N-[1-(Fluoromethyl)cyclopropyl]-1-[(1-methylpyrazol-4-yl)methyl]-3-[(5-methyl-1,3,4-thiadiazol-2-yl)methyl]-2,4-dioxo-quinazoline-6-sulfonamide]
 | > 150 |  |  |  | 121 |  | 706 | Cc1nc(Cn2c(=O)n(Cc3nnc(C)s3)c(=O)c3cc(S(=O)(=O)NC4(CF)CC4)ccc32)no1 [Example 631, N-[1-(Fluoromethyl)cyclopropyl]-1-[(5-methyl-1,2,4-oxadiazol-3-yl)methyl]-3-[(5-methyl-1,3,4-thiadiazol-2-yl)methyl]-2,4-dioxo-quinazoline-6-sulfonamide]
